# Assay results reported in PubChem BioAssay (NCI).
#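 Cultured in 96-well plates, cells were exposed to test compound for 48 hours across five concentrations. TGI marks complete inhibition of growth.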
# Key:
# Assay in all cases: NCI tumour cell line growth inhibition, 48 h
# [1] = system: SNB-75 CNS
# [2] = system: OVCAR-8 ovarian
# [3] = system: HT29 colon
# [4] = system: KM12 colon
# [5] = system: DLD-1 colon
# [6] = system: UACC-257 melanoma
# [7] = system: OVCAR-3 ovarian
# [8] = system: SN12C renal
# [9] = system: CAKI-1 renal
# [10] = system: NCI-H23 lung
# [11] = system: IGROV1 ovarian
# [12] = system: 786-0 renal
# [13] = system: M14 melanoma
# [14] = system: HOP-18 NSCLC
# [15] = system: ACHN renal
# [16] = system: A549 NSCLC
# [17] = system: TK-10 renal
# [18] = system: SF-295 CNS
# [19] = system: XF 498 CNS
# [20] = system: SK-MEL-2 melanoma
# [21] = system: HL-60(TB) leukemia
# [22] = system: UACC-62 melanoma
# [23] = system: KM20L2 colon
# [24] = system: HCC-2998 colon
# [25] = system: SR leukemia
# [26] = system: HOP-62 NSCLC
# [27] = system: MALME-3M melanoma
# [28] = system: M19-MEL melanoma
# [29] = system: RXF 393 renal
# [30] = system: EKVX NSCLC
# [31] = system: LXFL 529 NSCLC
# [32] = system: COLO 205 colon
# [33] = system: UO-31 renal
# [34] = system: HOP-92 NSCLC
# [35] = system: DMS 273 small cell lung
# [36] = system: CCRF-CEM leukemia
# [37] = system: SF-268 CNS
# [38] = system: HCT-15 colon
# [39] = system: MOLT-4 leukemia
# [40] = system: RPMI-8226 leukemia
# [41] = system: SF-539 CNS
# [42] = system: U251 CNS
# [43] = system: SW-620 colon
# [44] = system: OVCAR-4 ovarian
# [45] = system: NCI-H460 lung
# [46] = system: SK-MEL-28 melanoma
# [47] = system: SNB-19 CNS
# [48] = system: NCI-H226 lung
# [49] = system: NCI-H522 lung
# [50] = system: K-562 leukemia
# [51] = system: SK-MEL-5 melanoma
# [52] = system: HCT-116 colon
# [53] = system: DMS 114 small cell lung
# [54] = system: A498 renal
# [55] = system: OVCAR-5 ovarian
# [56] = system: SK-OV-3 ovarian
smiles,measurement,setting,value
Cc1ccc(S(=O)(=O)ON/N=C2/C3OC3[C@@H]3CCCC[C@H]23)cc1 (stereo not given in full),TGI,[1],> 100 µM
same,TGI,[2],> 100 µM
same,TGI,[3],> 100 µM
same,TGI,[4],> 100 µM
same,TGI,[5],> 100 µM
same,TGI,[6],32.5 µM
same,TGI,[7],> 100 µM
same,TGI,[8],> 100 µM
same,TGI,[9],> 100 µM
same,TGI,[10],> 100 µM
same,TGI,[11],> 100 µM
same,TGI,[12],> 100 µM
same,TGI,[13],> 100 µM
same,TGI,[14],> 100 µM
same,TGI,[15],> 100 µM
same,TGI,[16],> 100 µM
same,TGI,[17],> 100 µM
same,TGI,[18],> 100 µM
same,TGI,[19],> 100 µM
same,TGI,[20],> 100 µM
same,TGI,[21],> 100 µM
same,TGI,[22],> 100 µM
same,TGI,[23],> 100 µM
same,TGI,[24],> 100 µM
same,TGI,[25],> 100 µM
same,TGI,[26],> 100 µM
same,TGI,[27],> 100 µM
same,TGI,[28],> 100 µM
same,TGI,[29],> 100 µM
same,TGI,[30],> 100 µM
same,TGI,[31],> 100 µM
same,TGI,[32],> 100 µM
same,TGI,[33],> 100 µM
same,TGI,[34],> 100 µM
same,TGI,[35],> 100 µM
same,TGI,[36],> 100 µM
same,TGI,[37],> 100 µM
same,TGI,[38],> 100 µM
same,TGI,[39],> 100 µM
same,TGI,[40],> 100 µM
same,TGI,[41],> 100 µM
same,TGI,[42],> 100 µM
same,TGI,[43],> 100 µM
same,TGI,[44],> 100 µM
same,TGI,[45],> 100 µM
same,TGI,[46],> 100 µM
same,TGI,[47],> 100 µM
same,TGI,[48],> 100 µM
same,TGI,[49],> 100 µM
same,TGI,[50],> 100 µM
Cc1ccc(C)c(NC(=O)/C(=N\NC(N)=S)C(C#N)c2ccccc2)c1 (stereo not given),TGI,[1],> 100 µM
same,TGI,[2],> 100 µM
same,TGI,[3],> 100 µM
same,TGI,[4],> 100 µM
same,TGI,[5],> 100 µM
same,TGI,[6],> 100 µM
same,TGI,[7],> 100 µM
same,TGI,[51],> 100 µM
same,TGI,[8],> 100 µM
same,TGI,[9],> 100 µM
same,TGI,[10],> 100 µM
same,TGI,[11],> 100 µM
same,TGI,[12],> 100 µM
same,TGI,[52],> 100 µM
same,TGI,[13],> 100 µM
same,TGI,[53],> 100 µM
same,TGI,[14],> 100 µM
same,TGI,[15],> 100 µM
same,TGI,[16],> 100 µM
same,TGI,[17],> 100 µM
same,TGI,[18],> 100 µM
same,TGI,[19],> 100 µM
same,TGI,[20],> 100 µM
same,TGI,[21],> 100 µM
same,TGI,[22],> 100 µM
same,TGI,[23],> 100 µM
same,TGI,[24],> 100 µM
same,TGI,[25],> 100 µM
same,TGI,[26],> 100 µM
same,TGI,[27],> 100 µM
same,TGI,[28],> 100 µM
same,TGI,[54],> 100 µM
same,TGI,[30],> 100 µM
same,TGI,[31],> 100 µM
same,TGI,[32],> 100 µM
same,TGI,[33],> 100 µM
same,TGI,[34],> 100 µM
same,TGI,[35],> 100 µM
same,TGI,[55],> 100 µM
same,TGI,[36],> 100 µM
same,TGI,[37],> 100 µM
same,TGI,[38],> 100 µM
same,TGI,[39],> 100 µM
same,TGI,[40],> 100 µM
same,TGI,[41],> 100 µM
same,TGI,[42],> 100 µM
same,TGI,[43],> 100 µM
same,TGI,[44],> 100 µM
same,TGI,[45],> 100 µM
same,TGI,[46],> 100 µM
same,TGI,[47],> 100 µM
same,TGI,[48],> 100 µM
same,TGI,[56],> 100 µM
same,TGI,[49],> 100 µM
same,TGI,[50],> 100 µM
